Measurements from patent US20090137572A1, “2-substituted-4-heteroaryl-pyrimidines useful for the treatment of proliferative disorders” (priority 2004, published 2009).

How the values were obtained:
Format in all cases: biochemical
Aurora A kinase = biological target: T1, Aurora A kinase (Homo sapiens, UniProt O14965); experiment: Aurora-A (human) kinase assay (Kemptide substrate); conditions: pIC50 is -log(IC50, M); 15 μM ATP; read-out: Kinase Inhibition pIC50 Aurora A kinase (converted)
T1 construct: purchased
T1 sequence (O14965 1-403): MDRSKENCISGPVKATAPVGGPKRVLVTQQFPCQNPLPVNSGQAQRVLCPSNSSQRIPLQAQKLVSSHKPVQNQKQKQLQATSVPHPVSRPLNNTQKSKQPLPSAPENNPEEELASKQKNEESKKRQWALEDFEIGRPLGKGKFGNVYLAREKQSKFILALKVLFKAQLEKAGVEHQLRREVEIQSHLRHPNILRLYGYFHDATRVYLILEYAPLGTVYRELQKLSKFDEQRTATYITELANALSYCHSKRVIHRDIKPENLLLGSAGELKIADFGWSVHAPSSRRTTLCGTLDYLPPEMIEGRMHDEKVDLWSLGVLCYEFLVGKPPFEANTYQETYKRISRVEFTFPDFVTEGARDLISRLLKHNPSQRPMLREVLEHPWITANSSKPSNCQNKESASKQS
Procedure: Aurora-A (human) kinase assay. This was achieved by measurement of incorporation of radioactive phosphate from ATP into Kemptide substrate (LRRASLG), upon phosphorylation by commercially obtained aurora-A kinase. Assays were performed using 96-well plates and appropriate assay buffers (8 mM MOPS, 0.2 mM EDTA, pH 7.0), into which were added 5-10 ng of active enzyme with 200 μM substrate (Kemptide). The reactions were initiated by addition of Mg/ATP mix (10 mM MgAcetate+15 μM ATP with 30-50 kBq per well of [γ-^33P]-ATP) and mixtures incubated for 40 min at room temperature. Reactions were stopped by addition of 3% phosphoric acid, followed by filtration through p81 filterplates (Whatman Polyfiltronics, Kent, UK). After washing 5 times with 75 mM aq orthophosphoric acid and once in methanol, plates were dried, scintillant added and incorporated radioactivity measured in a scintillation counter (TopCount, Packard Instruments, Pangbourne, Berks, UK). Compounds for kinase assay were made up as 10 mM stocks in DMSO and diluted into 10% DMSO in assay buffer.

CDK2-cycline E = CDK2-cycline E (Homo sapiens, UniProt P24941); experiment: Kinase assay (radioactive phosphate incorporation), CDK2-cyclin E; conditions: read-out: Kinase Inhibition pIC50 CDK2-cycline E (converted)
Procedure: (§1) Kinase assays. The compounds of the invention above were investigated for their ability to inhibit the enzymatic activity of various protein kinases (Table 2). This was achieved by measurement of incorporation of radioactive phosphate from ATP into appropriate polypeptide substrates. Recombinant protein kinases and kinase complexes were produced or obtained commercially. Assays were performed using 96-well plates and appropriate assay buffers (typically 25 mM β-glycerophosphate, 20 mM MOPS, 5 mM EGTA, 1 mM DTT, 1 mM […], pH 7.4), into which were added 2-4 μg of active enzyme with appropriate substrates. The reactions were initiated by addition of Mg/ATP mix (15 mM MgCl2+100 μM ATP with 30-50 kBq per well of [γ-^32P]-ATP) and mixtures incubated as required at 30° C. Reactions were stopped on ice, followed by filtration through p81 filterplates or GF/C filterplates (Whatman Polyfiltronics, Kent, UK). After washing 3 times with 75 mM aq orthophosphoric acid, plates were dried, scintillant added and incorporated radioactivity measured in a scintillation counter (TopCount, Packard Instruments, Pangbourne, Berks, UK). Compounds for kinase assay were made up as 10 mM stocks in DMSO and diluted into 10% DMSO in assay buffer.

CDK9/cyclin T1 = CDK9/cyclin T1 (Homo sapiens, UniProt P50750); experiment: CDK 9 assay (CTD peptide substrate); conditions: read-out: Kinase Inhibition pIC50 CDK9-cyclin T1 (converted)
Procedure: as §1
(§2) CDK 7 and 9 assays. CTD peptide substrate (biotinyl-Abx-(Tyr-Ser-Pro-Thr-Ser-Pro-Ser)4-NH2; 1-2 mg/mL) and recombinant human CDK7/cyclin H, CDK9/cyclin T1, or CDK9/cyclin K (0.5-2 μg) were incubated for 45 min at 30° C. in the presence of varying amounts of test compound in 20 mM MOPS pH 7.2, 25 mM β-glycerophosphate, 5 mM EGTA, 1 mM DTT, 1 mM sodium vanadate, 15 mM MgCl2, and 100 μM ATP (containing a trace amount of ^32PγATP) in a total volume of 25 μL in a 96-well microtiter plate. The reaction was stopped by placing the plate on ice for 2 min. Avidin (50 μg) was added to each well, and the plate was incubated at room temp for 30 min. The samples were transferred to a 96-well P81 filter plate, and washed (4×200 μL per well) with 75 mM phosphoric acid. Microscint 40 scintillation liquid (50 μL) was added to each well, and the amount of ^32P incorporation for each sample was measured using a Packard Topcount microplate scintillation counter.

CDK7/cyclin H = CDK7/cyclin H (Homo sapiens, UniProt P50613); experiment: CDK 7 assay (CTD peptide substrate); conditions: read-out: Kinase Inhibition pIC50 CDK7-cyclin H (converted)
Procedure: as §1, §2

CDK7/cyclin H, sequence (P50613 whole entry): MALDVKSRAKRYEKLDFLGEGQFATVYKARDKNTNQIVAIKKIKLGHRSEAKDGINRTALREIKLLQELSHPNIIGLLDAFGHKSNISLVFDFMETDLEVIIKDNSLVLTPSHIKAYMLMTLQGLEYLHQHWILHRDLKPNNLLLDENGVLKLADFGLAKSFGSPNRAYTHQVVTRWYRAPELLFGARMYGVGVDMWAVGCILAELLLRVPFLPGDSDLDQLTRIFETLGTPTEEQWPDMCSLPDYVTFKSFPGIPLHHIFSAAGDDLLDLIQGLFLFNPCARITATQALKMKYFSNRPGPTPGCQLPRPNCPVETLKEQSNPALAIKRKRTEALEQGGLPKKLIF
CDK7/cyclin H, sequence (P51946 whole entry partner): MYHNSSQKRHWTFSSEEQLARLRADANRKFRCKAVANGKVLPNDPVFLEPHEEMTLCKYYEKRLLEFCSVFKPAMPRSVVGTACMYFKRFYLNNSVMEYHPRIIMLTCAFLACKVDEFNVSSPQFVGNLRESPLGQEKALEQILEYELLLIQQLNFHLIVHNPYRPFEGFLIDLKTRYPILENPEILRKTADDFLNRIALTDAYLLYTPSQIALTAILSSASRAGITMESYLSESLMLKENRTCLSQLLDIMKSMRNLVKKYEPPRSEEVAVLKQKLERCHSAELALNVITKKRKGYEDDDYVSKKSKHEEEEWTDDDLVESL
CDK9/cyclin T1, sequence (P50750 whole entry): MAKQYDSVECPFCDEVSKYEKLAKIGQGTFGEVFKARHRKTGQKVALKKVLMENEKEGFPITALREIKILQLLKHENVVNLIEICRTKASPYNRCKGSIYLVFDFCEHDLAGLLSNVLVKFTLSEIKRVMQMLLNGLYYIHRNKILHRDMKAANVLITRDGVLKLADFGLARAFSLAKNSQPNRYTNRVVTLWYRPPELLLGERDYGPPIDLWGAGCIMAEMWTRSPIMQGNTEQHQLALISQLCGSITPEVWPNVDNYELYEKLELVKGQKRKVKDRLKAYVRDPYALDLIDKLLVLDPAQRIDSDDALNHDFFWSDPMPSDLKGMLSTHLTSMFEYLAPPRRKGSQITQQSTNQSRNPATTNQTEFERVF
CDK9/cyclin T1, sequence (O60563 whole entry partner): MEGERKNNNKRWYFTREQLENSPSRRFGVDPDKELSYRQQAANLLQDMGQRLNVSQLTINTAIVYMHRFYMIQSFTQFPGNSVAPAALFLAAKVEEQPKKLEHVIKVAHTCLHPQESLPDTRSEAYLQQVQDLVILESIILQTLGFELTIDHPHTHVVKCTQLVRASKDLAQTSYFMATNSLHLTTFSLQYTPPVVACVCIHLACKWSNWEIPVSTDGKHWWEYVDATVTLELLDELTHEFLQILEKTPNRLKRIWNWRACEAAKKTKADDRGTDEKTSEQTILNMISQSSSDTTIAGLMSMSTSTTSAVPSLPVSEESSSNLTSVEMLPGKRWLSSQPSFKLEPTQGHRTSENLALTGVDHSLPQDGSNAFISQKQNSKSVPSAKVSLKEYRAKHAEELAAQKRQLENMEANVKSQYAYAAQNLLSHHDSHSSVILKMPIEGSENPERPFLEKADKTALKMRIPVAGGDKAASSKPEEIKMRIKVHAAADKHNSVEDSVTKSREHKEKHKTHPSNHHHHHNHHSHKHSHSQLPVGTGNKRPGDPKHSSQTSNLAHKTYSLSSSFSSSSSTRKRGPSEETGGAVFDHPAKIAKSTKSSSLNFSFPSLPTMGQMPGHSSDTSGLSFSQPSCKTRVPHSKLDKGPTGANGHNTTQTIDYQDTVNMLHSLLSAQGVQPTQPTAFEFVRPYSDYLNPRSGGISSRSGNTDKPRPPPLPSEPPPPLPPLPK

Row | IC50 (Aurora A kinase) | IC50 (CDK2-cycline E) | IC50 (CDK9/cyclin T1) | IC50 (CDK7/cyclin H) | SMILES
1 | 79.4 nM | 1580 nM | 3980 nM |  | Cc1nc(CO)sc1-c1ccnc(Nc2ccc(N3CCOCC3)cc2)n1 [Compound 188, {4-Methyl-5-[2-(4-morpholin-4-yl-phenylamino)-pyrimidin-4-yl]-thiazol-2-yl}-methanol]
2 | 39.8 nM | 794 nM | 1000 nM | 2510 nM | COc1cc(Nc2nccc(-c3sc(N)nc3C)n2)ccc1N1CCOCC1 [Compound 182, [4-(2-Amino-4-methyl-thiazol-5-yl)-pyrimidin-2-yl]-(3-methoxy-4-morpholin-4-yl-phenyl)-amine]
3 | 39.8 nM | 1580 nM | 2510 nM |  | Cc1nc(C)c(-c2ccnc(Nc3ccc(N4CCN(C(=O)C5CC5)CC4)cc3)n2)s1 [Compound 213, Cyclopropyl-(4-{4-[4-(2,4-dimethyl-thiazol-5-yl)-pyrimidin-2-ylamino]-phenyl}-piperazin-1-yl)-methanone]
4 | 200 nM | 2000 nM | 1260 nM | 1580 nM | CC(=O)N1CCN(c2ccc(Nc3nccc(-c4sc(N(C)Cc5ccccc5)nc4C)n3)cc2)CC1 [Compound 122, 1-[4-(4-{4-[2-(Benzyl-methyl-amino)-4-methyl-thiazol-5-yl]-pyrimidin-2-ylamino}-phenyl)-piperazin-1-yl]-ethanone]
5 | 12.6 nM |  | 2510 nM | 5010 nM | CNc1nc(C)c(-c2ccnc(Nc3cccc(S(=O)(=O)Nc4cccc(OC)c4)c3)n2)s1 [Compound 32, N-(3-Methoxy-phenyl)-3-[4-(4-methyl-2-methylamino-thiazol-5-yl)-pyrimidin-2-ylamino]-benzenesulfonamide]
6 | 63.1 nM | 1000 nM | 1260 nM |  | CCNc1nc(C)c(-c2ccnc(Nc3ccc(N4CCOCC4)c(C(N)=O)c3)n2)s1 [Compound 212, 5-[4-(2-Ethylamino-4-methyl-thiazol-5-yl)-pyrimidin-2-ylamino]-2-morpholin-4-yl-benzamide]
7 | 100 nM | 2000 nM | 2000 nM |  | CCOC(=O)N1CCN(c2ccc(Nc3nccc(-c4sc(C)nc4C)n3)cc2)CC1 [Compound 189, 4-{4-[4-(2,4-Dimethyl-thiazol-5-yl)-pyrimidin-2-ylamino]-phenyl}-piperazine-1-carboxylic acid ethyl ester]
8 | 200 nM |  | 3980 nM |  | Cc1nc(C)c(-c2ccnc(Nc3ccc(N4CCCCC4)cc3)n2)s1 [Compound 193, [4-(2,4-Dimethyl-thiazol-5-yl)-pyrimidin-2-yl]-(4-piperidin-1-yl-phenyl)-amine]
9 | 31.6 nM | 794 nM | 2000 nM | 3160 nM | CCN(C)c1nc(C)c(-c2ccnc(Nc3ccc(N4CCOCC4)cc3)n2)s1 [Compound 120, {4-[2-(Ethyl-methyl-amino)-4-methyl-thiazol-5-yl]-pyrimidin-2-yl}-(4-morpholin-4-yl-phenyl)-amine]
10 | 50.1 nM | 1260 nM | 3980 nM | 7940 nM | Cc1cc(Nc2nccc(-c3sc(CO)nc3C)n2)ccc1N1CCOCC1 [Compound 217, {4-Methyl-5-[2-(3-methyl-4-morpholin-4-yl-phenylamino)-pyrimidin-4-yl]-thiazol-2-yl}-methanol]
11 | 63.1 nM | 1000 nM | 2510 nM | 7940 nM | Cc1nc(C)c(-c2ccnc(Nc3ccc(N4CCN(CC(=O)NC(C)C)CC4)cc3)n2)s1 [Compound 190, 2-(4-{4-[4-(2,4-Dimethyl-thiazol-5-yl)-pyrimidin-2-ylamino]-phenyl}-piperazin-1-yl)-N-isopropyl-acetamide]
12 | 20 nM |  | 200 nM |  | CCNc1nc(C)c(-c2ccnc(Nc3cccc(Br)c3)n2)s1 [Compound 50, (3-Bromo-phenyl)-[4-(2-ethylamino-4-methyl-thiazol-5-yl)-pyrimidin-2-yl]-amine]
13 | 63.1 nM | 1580 nM | 631 nM | 1580 nM | COc1cc(Nc2nccc(-c3sc(CO)nc3C)n2)ccc1N1CCCCC1 [Compound 216, {5-[2-(3-Methoxy-4-piperidin-1-yl-phenylamino)-pyrimidin-4-yl]-4-methyl-thiazol-2-yl}-methanol]
14 | 158 nM | 2510 nM | 2000 nM | 6310 nM | Cc1nc(N)sc1-c1ccnc(Nc2ccc(N3CCOCC3)c(C(N)=O)c2)n1 [Compound 211, 5-[4-(2-Amino-4-methyl-thiazol-5-yl)-pyrimidin-2-ylamino]-2-morpholin-4-yl-benzamide]
15 | 316 nM | 1260 nM | 1580 nM | 126 nM | Cc1nc(C)c(-c2ccnc(Nc3ccc(N4CCN(Cc5ccccc5)CC4)cc3)n2)s1 [Compound 114, [4-(4-Benzyl-piperazin-1-yl)-phenyl]-[4-(2,4-dimethyl-thiazol-5-yl)-pyrimidin-2-yl]-amine]
16 | 39.8 nM | 794 nM | 398 nM | 1580 nM | Cc1nc(N)sc1-c1ccnc(Nc2ccc(N3CCCCC3)cc2)n1 [Compound 195, [4-(2-Amino-4-methyl-thiazol-5-yl)-pyrimidin-2-yl]-(4-piperidin-1-yl-phenyl)-amine]
17 | 200 nM | 1580 nM |  |  | COc1ccc(Nc2nccc(-c3sc(C)nc3C)n2)cc1CN1CCOCC1 [Compound 215, [4-(2,4-Dimethyl-thiazol-5-yl)-pyrimidin-2-yl]-(4-methoxy-3-morpholin-4-ylmethyl-phenyl)-amine]
18 | 100 nM | 251 nM |  |  | COCCNc1nc(C)c(-c2ccnc(Nc3ccc(N4CCOCC4)cc3)n2)s1 [Compound 144, {4-[2-(2-Methoxy-ethylamino)-4-methyl-thiazol-5-yl]-pyrimidin-2-yl}-(4-morpholin-4-yl-phenyl)-amine]
19 | 39.8 nM | 251 nM |  |  | COc1ccc(Nc2nccc(-c3sc(N)nc3C)n2)cc1C [Compound 185, [4-(2-Amino-4-methyl-thiazol-5-yl)-pyrimidin-2-yl]-(4-methoxy-3-methyl-phenyl)-amine]
20 | 50.1 nM | 126 nM |  |  | Cc1nc(NC(C)(C)C)sc1-c1ccnc(Nc2ccc(N3CCOCC3)cc2)n1 [Compound 143, [4-(2-tert-Butylamino-4-methyl-thiazol-5-yl)-pyrimidin-2-yl]-(4-morpholin-4-yl-phenyl)-amine]
21 | 126 nM | 200 nM |  |  | CCNc1nc(C)c(-c2ccnc(Nc3ccc(N4CCOCC4)c(Cl)c3)n2)s1 [Compound 134, (3-Chloro-4-morpholin-4-yl-phenyl)-[4-(2-ethylamino-4-methyl-thiazol-5-yl)-pyrimidin-2-yl]-amine]
22 | 158 nM | 794 nM |  |  | Cc1nc(C)c(-c2ccnc(Nc3ccc(N4CCOCC4)c(Cl)c3)n2)s1 [Compound 141, (3-Chloro-4-morpholin-4-yl-phenyl)-[4-(2,4-dimethyl-thiazol-5-yl)-pyrimidin-2-yl]-amine]
